Reference: ChEMBL document CHEMBL1201862, “PubChem BioAssay data set” (2004)
Calls of active or inactive are those of the source.

Tests used:
BJ [1] = assay: growth inhibition of engineered Ras-driven BJ cells – cell-based, alamar blue fluorescence, cherrypicked samples, dose response (AID 2631); format: functional; settings: Homo sapiens;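 note: confirmatory dose-response assay in RAS-dependent BJ fibroblasts engineered with TERT, LT and ST, with cytotoxicity read by fluorescence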
BJ [2] = assay: BJ-TERT fibroblast viability loss – cell-based, RAS-independent, luminescence, dose response (AID 1933); format: functional; settings: Homo sapiens
[3] = NIH-3T3 fibroblast cytotoxicity, dose response, cytotoxicity control, cell-based, fluorescence, Alamar Blue, secondary assay (AID 2327); format: functional;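 note: NIH-3T3 mouse fibroblasts cultured with fluconazole at 8 µg/mL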
[4] = DRD fibroblast viability loss – cell-based, non-viral oncogenic, luminescence, dose response (AID 1934); format: functional; settings: Homo sapiens
[5] = viability of PTEN-deleted HCT116 cells – cell-based, HCT116 PTEN knockout, dose response (AID 1047); format: functional;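 note: HCT116 colon tumor cells with PTEN knocked out; cells exposed to compound for 60 hours before readout; potency for loss of cell viability measured by luminescence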
[6] = fluconazole-exposed Candida albicans growth modulators – fluorescence, retest, confirmation (AID 2467); format: functional, cell-based
BJ [7] = assay: cells; format: functional, cell-based; settings: Homo sapiens
[8] = viability of HCT116 lacking mutant beta-catenin – cell-based, human colon tumor, dose response (AID 1045); format: functional;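 note: HCT116 colon tumor cells with beta catenin knocked out; cells exposed to compound for 60 hours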
BJ [9] = assay: BJ-TERT-LT-ST fibroblast viability loss – cell-based, RAS-independent, luminescence, dose response (AID 1935); format: functional; settings: Homo sapiens;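 note: BJ fibroblasts immortalized with TERT plus LT and ST oncogenes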
Caspase-3 = molecular target: T1, Caspase-3 (Homo sapiens, UniProt P42574); format: functional;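 note: Dose-response selectivity test against caspase-3 for candidate inhibitors of sentrin-specific proteases (SENPs)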
T1 sequence (P42574 whole entry): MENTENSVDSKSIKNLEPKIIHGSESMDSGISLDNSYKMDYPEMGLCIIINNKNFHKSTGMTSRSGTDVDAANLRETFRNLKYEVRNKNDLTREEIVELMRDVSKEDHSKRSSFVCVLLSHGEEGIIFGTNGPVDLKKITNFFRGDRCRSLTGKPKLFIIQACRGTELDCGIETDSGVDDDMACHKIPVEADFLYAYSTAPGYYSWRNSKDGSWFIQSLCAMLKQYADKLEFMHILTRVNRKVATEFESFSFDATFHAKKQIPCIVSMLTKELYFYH

HeLa = assay: ATP-based viability loss in HeLa cells – cell-based, CellTiter-Glo luminescence, cherry-pick samples, cytotoxicity control for MITF activator project, dose response (AID 540259); format: functional; settings: Homo sapiens
[10] = molecular target: T2, Sentrin-specific protease 7 (Homo sapiens, UniProt Q9BQF6); format: functional;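 note: Luminescence-based dose-response confirmation of ultra-high-throughput screening hits, measuring inhibition of SENP7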
T2 sequence (Q9BQF6 whole entry): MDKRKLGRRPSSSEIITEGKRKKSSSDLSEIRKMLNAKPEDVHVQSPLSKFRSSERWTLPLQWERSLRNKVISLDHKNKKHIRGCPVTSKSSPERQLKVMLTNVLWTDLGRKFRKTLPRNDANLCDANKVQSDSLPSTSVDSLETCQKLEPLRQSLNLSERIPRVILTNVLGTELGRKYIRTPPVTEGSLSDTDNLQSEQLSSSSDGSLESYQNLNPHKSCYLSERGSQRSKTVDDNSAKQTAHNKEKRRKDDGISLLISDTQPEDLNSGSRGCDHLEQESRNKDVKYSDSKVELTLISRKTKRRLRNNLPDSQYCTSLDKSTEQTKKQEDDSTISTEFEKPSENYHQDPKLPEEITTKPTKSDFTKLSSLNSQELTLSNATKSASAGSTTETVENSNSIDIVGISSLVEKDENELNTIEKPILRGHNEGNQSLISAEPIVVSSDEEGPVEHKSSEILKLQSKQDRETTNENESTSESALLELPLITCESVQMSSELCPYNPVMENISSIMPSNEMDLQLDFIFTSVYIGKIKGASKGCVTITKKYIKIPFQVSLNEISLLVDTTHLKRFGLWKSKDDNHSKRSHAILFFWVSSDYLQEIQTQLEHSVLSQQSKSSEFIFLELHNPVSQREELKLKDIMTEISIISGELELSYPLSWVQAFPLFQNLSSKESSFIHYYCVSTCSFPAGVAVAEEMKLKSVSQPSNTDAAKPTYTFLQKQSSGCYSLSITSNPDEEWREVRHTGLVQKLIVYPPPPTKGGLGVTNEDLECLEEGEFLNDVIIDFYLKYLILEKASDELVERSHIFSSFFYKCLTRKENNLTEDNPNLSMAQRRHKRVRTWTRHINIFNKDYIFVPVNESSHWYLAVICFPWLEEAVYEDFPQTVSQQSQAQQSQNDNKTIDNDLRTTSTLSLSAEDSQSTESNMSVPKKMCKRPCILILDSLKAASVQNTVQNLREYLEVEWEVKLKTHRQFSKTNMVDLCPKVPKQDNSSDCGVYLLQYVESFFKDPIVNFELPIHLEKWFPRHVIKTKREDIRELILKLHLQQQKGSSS

[11] = molecular target: T3, Rac GTPase-activating protein 1 (Homo sapiens, UniProt Q9H0H5); assay: blockers of MgcRacGAP-driven Rac1 GTP hydrolysis – biochemical, ADP Hunter fluorescence, primary and confirmatory, confirmation (AID 624330); format: functional
T3 sequence (Q9H0H5 whole entry): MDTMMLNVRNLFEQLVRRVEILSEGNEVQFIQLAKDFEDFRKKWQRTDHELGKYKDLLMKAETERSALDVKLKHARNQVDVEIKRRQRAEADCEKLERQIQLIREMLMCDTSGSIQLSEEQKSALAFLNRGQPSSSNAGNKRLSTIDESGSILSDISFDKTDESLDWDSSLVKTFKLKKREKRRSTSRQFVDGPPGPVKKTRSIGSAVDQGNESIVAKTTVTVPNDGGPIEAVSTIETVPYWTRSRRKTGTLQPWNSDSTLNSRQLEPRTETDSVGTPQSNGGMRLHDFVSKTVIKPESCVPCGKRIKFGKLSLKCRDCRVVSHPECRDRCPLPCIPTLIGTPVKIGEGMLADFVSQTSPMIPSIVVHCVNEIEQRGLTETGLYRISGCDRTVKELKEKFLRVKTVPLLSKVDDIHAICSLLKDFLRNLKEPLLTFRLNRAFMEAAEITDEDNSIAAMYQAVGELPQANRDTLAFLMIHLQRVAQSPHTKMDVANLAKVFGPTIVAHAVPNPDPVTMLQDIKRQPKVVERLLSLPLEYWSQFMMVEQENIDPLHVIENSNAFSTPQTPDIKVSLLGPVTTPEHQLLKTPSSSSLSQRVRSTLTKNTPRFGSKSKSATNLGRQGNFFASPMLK

[12] = molecular target: T4, Sentrin-specific protease 6 (Homo sapiens, UniProt Q9GZR1); format: functional;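 note: Luminescence-based dose-response confirmatory assay of SENP6 inhibition, following up an ultra-high-throughput screen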
T4 sequence (Q9GZR1 whole entry): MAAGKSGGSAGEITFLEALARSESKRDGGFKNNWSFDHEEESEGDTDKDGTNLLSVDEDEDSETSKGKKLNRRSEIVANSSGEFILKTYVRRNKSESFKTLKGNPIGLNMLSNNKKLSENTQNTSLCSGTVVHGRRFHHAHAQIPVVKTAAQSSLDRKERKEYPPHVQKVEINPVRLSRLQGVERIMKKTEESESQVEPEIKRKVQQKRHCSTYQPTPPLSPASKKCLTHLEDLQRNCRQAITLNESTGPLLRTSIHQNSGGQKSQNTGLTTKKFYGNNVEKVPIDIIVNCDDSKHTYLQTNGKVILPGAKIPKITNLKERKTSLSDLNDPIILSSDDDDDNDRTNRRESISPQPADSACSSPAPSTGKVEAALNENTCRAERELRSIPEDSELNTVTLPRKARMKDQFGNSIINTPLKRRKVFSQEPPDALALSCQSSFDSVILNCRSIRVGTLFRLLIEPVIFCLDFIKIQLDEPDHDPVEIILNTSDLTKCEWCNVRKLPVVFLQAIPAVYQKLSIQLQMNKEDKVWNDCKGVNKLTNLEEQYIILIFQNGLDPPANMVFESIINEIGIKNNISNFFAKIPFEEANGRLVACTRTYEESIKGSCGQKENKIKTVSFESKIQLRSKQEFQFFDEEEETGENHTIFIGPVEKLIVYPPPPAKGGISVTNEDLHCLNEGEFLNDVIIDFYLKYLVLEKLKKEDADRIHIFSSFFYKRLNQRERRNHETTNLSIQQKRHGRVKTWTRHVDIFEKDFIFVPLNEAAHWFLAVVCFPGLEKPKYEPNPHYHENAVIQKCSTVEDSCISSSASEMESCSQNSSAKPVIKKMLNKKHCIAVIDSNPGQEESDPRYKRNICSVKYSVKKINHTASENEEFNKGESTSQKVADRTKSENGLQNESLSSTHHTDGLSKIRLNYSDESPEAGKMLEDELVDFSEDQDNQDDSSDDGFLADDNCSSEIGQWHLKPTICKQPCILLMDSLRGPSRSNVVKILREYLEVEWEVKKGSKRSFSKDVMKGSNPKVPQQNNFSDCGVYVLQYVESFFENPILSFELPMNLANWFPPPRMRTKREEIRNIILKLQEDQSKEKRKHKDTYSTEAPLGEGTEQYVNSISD

[13] = molecular target: T5, Sentrin-specific protease 8 (Homo sapiens, UniProt Q96LD8); format: functional;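 note: luminescence read-out of SENP8 inhibition, dose-response confirmation following an ultra-high-throughput screen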
T5 sequence (Q96LD8 whole entry): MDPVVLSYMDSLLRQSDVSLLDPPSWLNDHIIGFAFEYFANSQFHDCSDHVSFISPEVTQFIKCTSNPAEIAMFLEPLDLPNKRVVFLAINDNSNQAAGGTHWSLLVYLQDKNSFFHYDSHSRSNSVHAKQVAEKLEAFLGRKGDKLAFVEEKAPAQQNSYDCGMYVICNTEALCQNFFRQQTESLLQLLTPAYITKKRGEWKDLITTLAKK

HEK293 = assay: EBV LMP1 TES2 canonical NF-kB signalling blockers – cell-based, HEK293, luciferase, cherry-pick, dose response (AID 588343); format: functional; settings: Homo sapiens

Q: For `O=c1c2ccccc2nc(/C=C/c2ccc([N+](=O)[O-])o2)n1CCCO`, which EC50 (BJ [1]) is on record?
A: 3.07 µM (active)

Q: What about the EC50 (BJ [2]) of the same compound?
A: 6.12 µM (inconclusive)

Q: What about the EC50 [3] of the same compound?
A: 7.14 µM (inconclusive)

Q: And the EC50 [4]?
A: 5.06 µM (inconclusive)

Q: And the EC50 [5]?
A: < 0.059 µM (active)

Q: What about the EC50 [6] of the same compound?
A: 0.503 µM (active)

Q: And the EC50 (BJ [7])?
A: 7.21 µM (inconclusive)

Q: And the EC50 [8]?
A: < 0.059 µM (active)

Q: And the EC50 (BJ [9])?
A: 3.96 µM (active)

Q: Which results are given for `CCN(CC)c1ccc(Nc2nc(-c3cccnc3)cs2)cc1`?
A: IC50 (Caspase-3): 21.5 µM (active); AC50 (HeLa): 77 µM (active); IC50 [10]: 4.32 µM (active); IC50 [11]: 185 µM (active); IC50 [12]: 16.9 µM (active); IC50 [13]: 26.7 µM (active)

Q: Which AC50 (HEK293) does the source give for `COc1ccc(C=NNc2nc3ccccc3s2)cc1` here?
A: 2.96 µM (active)
